Read-outs that look alike come from different tables or passages of the source.

A short description of the data set: Example 8 pharmacokinetics assay for PKPD study (plasma, tumor, liver). It counts as in vivo, BALB/c nude mice. As to conditions: mouse, po, 35 mg/kg, p.o., single dose. As to the method:
For the PK and PD study, agents were administered to BALB/c nude mice bearing A375 human melanoma xenografts tumors. encorafenib, Compound 8, Compound 26, Compound 38, and Compound 39 were dosed p.o. once on day 1. Encorafenib was dosed at 35 mg/kg, Compound 8, Compound 26, Compound 38, and Compound 39 were dosed at 10 mg/kg. This study was non-GLP.
The plasma samples were collected at predetermined time points for PK analysis. For non-termination plasma collection, blood samples were collected into the 1.5 mL Eppendorf tubes containing 3 μL of 0.5 M EDTA-K2. For termination plasma collection, the mice were euthanized at predetermined time points post the treatment and the blood samples were collected into the 1.5 mL Eppendorf tubes containing 15 μL of 0.5 M EDTA-K2. And then the anticoagulant blood samples were centrifuged at 2,500 g at 4° C. for 15 minutes. The plasma samples were separated into 2 aliquots. The 1st was used for PK analysis, and the 2nd served as backup. The samples were stored at −80° C. before bioanalysis.
The tumor samples were collected at predetermined time points for PK and WB analysis. The tumor was dissected out and split into 3 parts. The 1st part was used for PK analysis, the 2nd part was used for WB analysis and the last one served as backup for study. The samples were transferred into pre-labeled tubes and quickly froze in liquid nitrogen within 2 minutes after dissection. The samples were stored at −80° C. before bioanalysis.
Liver samples were collected at predetermined time points for PK analysis. The left lobe of the liver was dissected out and split into 2 parts. The 1st part was used for PK analysis and the 2nd part served as the backup for the study. The samples were transferred into pre-labeled tubes and quickly froze in liquid nitrogen within 2 minutes after dissection. The samples were stored at −80° C. before bioanalysis.
The harvested plasma and liver samples were processed for pharmacokinetics analysis by LC-MS/MS with a concentration range of 0.200~200 ng/mL for encorafenib in plasma and liver homogenate, and 0.100-100 ng/ml in tumor homogenate, 1.00-1000 ng/mL for Compound 8 in plasma and 0.500~500 ng/ml in tumor and liver homogenate, 50.0~50,000 ng/mL for Compound 26 and Compound 38 in plasma, 5.0~5000 ng/ml in liver and 2.00~2000 ng/ml in tumor homogenate, 1.00-1000 ng/mL for Compound 39 in plasma and 0.500~500 ng/mL in liver and tumor homogenate.

[1] abbreviates: liver, read-out: Concentration in Liver (mean ± SEM).
The mark [2] stands for this setting: plasma, read-out: Concentration in Plasma (mean ± SEM).
Where [3] appears, read: tumor, read-out: Concentration in Tumor (mean ± SEM).

Turning to `COC(=O)N[C@@H](C)CNc1nccc(-c2cn(C(C)C)nc2-c2cc(Cl)cc(NS(C)(=O)=O)c2F)n1` [Encorafenib, encorafenib, reference compound], the concentration at 6 h under setting [1] amounted to 362 ± 231 ng/g, the concentration at 6 h under setting [2] was determined as 585 ± 446 ng/mL and the concentration at 6 h under setting [3] worked out at 139 ± 76.2 ng/g. Also, the concentration at 12 h amounted to 16 ± 5.3 ng/g under setting [1], 11.3 ± 8.5 ng/mL under setting [2] and 16.1 ± 10.9 ng/g under setting [3]. For the same compound, the concentration at 1 h came out at 5510 ± 1700 ng/mL under setting [2] and 1350 ± 391 ng/g under setting [3]. For the same compound, the concentration at 24 h (plasma, 24 h, read-out: Concentration in Plasma (mean ± SEM)) was found to be 0.368 ± 0.082 ng/mL.

The values above are taken from US20260297060A1, “COMPOUNDS FOR THE DEGRADATION OF MUTANT BRAF” (C4 THERAPEUTICS, INC., priority 2023, published 2026).
